Experimental data as given in PMC11077991, “The small molecule CBR-5884 inhibits the Candida albicans phosphatidylserine synthase” (mBio, 2024).

Columns and labels:
C57BL/6 j mice = system: C57BL/6 j mice; design: method as in PMID 25848045; conditions: high dose of 20 mg/kg; cited from earlier work
[1] = system: phospholipid levels in C. albicans; experiment: thin-layer chromatography of phospholipids; assay type: cell-based, Candida albicans; conditions: 170 µM, 2 h
Protocol: Wild-type SC5314 and cho1ΔΔ strains grown overnight in YPD were inoculated into fresh YPD at OD600 of 0.1 and were shaken for another 3 h. Then, 170 µM CBR-5884 or equivalent DMSO solvent was added to both wild-type and cho1ΔΔ cultures, and cells were shaken for another 2 h. Then, cells were washed with 1× PBS three times and normalized to a total OD600 of 1. The phospholipids were extracted with the hot ethanol method as described in reference ([14]). A Whatman 250 µm silica gel aluminum backed plate was treated, and separation of phospholipids was carried out as described in reference ([100]). Phospholipid standards PI, PE, PS, and PC were purchased from Avanti. The quantification of the phospholipids was done in ImageJ software.

[2] = system: cancer cell lines with high serine biosynthetic activity (melanoma and breast cancer lines); design: method as in PMID 26831078; conditions: cited from earlier work
cho1ΔΔ strain = experiment: growth of cho1ΔΔ strain in rich YPD media; assay type: cell-based, Candida albicans
[3] = system: wild-type C. albicans cell wall β(1-3)-glucan exposure; experiment: fluorescence imaging of unmasked β(1-3)-glucan; assay type: cell-based, Candida albicans; conditions: 170 µM, YPD
Protocol: Wild-type and cho1ΔΔ cells were grown in YPD overnight (~16 h), and back diluted to fresh YPD with OD600 of ~0.1. The cells were then shaken at 225 rpm for 3 h before 170 µM CBR-5884 or equivalent DMSO were added. The cells were further shaken for 30, 60, 120 min before staining with anti-β(1-3)-glucan antibody. The cells were stained as previously described ([57], [97]) with the exception that goat anti-mouse antibody conjugated to Alexa Fluor 488 (Jackson ImmunoResearch) was used as the secondary antibody. For imaging, Candida cells were resuspended in 200 µL of Fluoromount-G mounting medium and visualized with a Leica SP8 white light laser confocal microscope. The pictures were taken through Leica Application Suite X office software and quantified as described above.

[4] = precipitation in MIC media; assay type: physicochemical
purified hexameric Cho1 = purified hexameric Cho1 (Candida albicans, UniProt A0A1D8PF32); experiment: kinetic curves of purified hexameric Cho1 (radioactive PS synthase assay); assay type: biochemical
Protocol: For the kinetic curves, the specific activity was measured in the reaction containing 50 mM Tris-HCl (pH 8.0), 1 mM MnCl2, 0.025%–0.3% Triton X-100 and 0.033%–0.07% digitonin with 0.75–1.5 µg purified Cho1 protein. The concentrations of 18:1 CDP-DAG (Avanti, cat# 870520) and serine are indicated in the graphs, and the mol % of CDP-DAG was kept between 4.2% and 5.0% for the curve where CDP-DAG was varied (Fig. 6C and D) and at 4.8% (200 μM) for the curve where serine was varied (Fig. 6B). The concentrations of CBR-5884 used in each reaction are indicated in the graph, and CBR-5884 was incubated with purified Cho1 protein in the presence of CDP-DAG on ice for at least 2 h before the addition of L-[^3H]-serine. The reaction was stopped at 20, 40, and 60 min, and specific activity was calculated based on the slope of linear PS production, representing the initial velocity.

purified hexameric Cho1, sequence (A0A1D8PF32 entry or part of it): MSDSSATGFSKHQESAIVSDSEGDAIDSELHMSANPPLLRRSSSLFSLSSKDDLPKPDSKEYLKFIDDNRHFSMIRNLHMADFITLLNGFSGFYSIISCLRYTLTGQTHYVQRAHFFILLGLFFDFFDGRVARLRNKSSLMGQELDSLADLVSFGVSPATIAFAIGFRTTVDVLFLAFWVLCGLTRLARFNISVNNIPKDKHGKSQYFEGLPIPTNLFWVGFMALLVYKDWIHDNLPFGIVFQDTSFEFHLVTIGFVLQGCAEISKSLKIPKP

Row | SMILES | tolerability (C57BL/6 j mice) | PI levels [1] | relative PS level in wild-type strain vs DMSO [1] | relative PE levels ([1]; wild-type and cho1ΔΔ) | toxicity to cancer cell lines [2] | growth of the cho1ΔΔ strain (cho1ΔΔ strain) | β(1-3)-glucan unmasking vs wild-type in DMSO ([3]; 30-min treatment) | β(1-3)-glucan unmasking vs cho1ΔΔ mutant ([3]; 120-min treatment) | solubility in MIC media [4] | Ki (purified hexameric Cho1) | inhibition of Cho1 activity at sub-saturating serine (purified hexameric Cho1; serine 20 mM, CDP-DAG 25-300 µM) | inhibition of Cho1 activity at saturating serine (purified hexameric Cho1; serine 32 mM, CDP-DAG varied) | pattern of inhibition (purified hexameric Cho1; serine varied, CDP-DAG 200 µM)
1 | O=C(C1CC1)N1CCN(Cn2sc3ccccc3c2=O)CC1 [LOC14] | well tolerated |  |  |  |  |  |  |  |  |  |  |  | 
2 | CCOC(=O)c1sc(NC(=O)c2ccco2)c(SC#N)c1C [CBR-5884] |  | not strongly affected | significantly dropped | significantly decreased | selectively toxic | decreases growth | significantly increased unmasking | more unmasking than the cho1ΔΔ mutant | precipitated at high concentrations | 1550 nM | observed | inhibition was overcome | competitive inhibition
